Results taken from PubChem BioAssay (NCI).
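Following 48 hours of exposure in 96-well plates, responses at five concentrations were used to interpolate endpoints linearly. GI50 marks 50% less growth. The concentration for full growth arrest is given as TGI.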

Legend:
Assay in all cases: NCI-60 cell line screen, 48 h
DU-145 prostate = test system: DU-145 prostate
IGROV1 ovarian = test system: IGROV1 ovarian
EKVX NSCLC = test system: EKVX NSCLC
SK-MEL-5 melanoma = test system: SK-MEL-5 melanoma
SW-620 colon = test system: SW-620 colon
RPMI-8226 leukemia = test system: RPMI-8226 leukemia
OVCAR-4 ovarian = test system: OVCAR-4 ovarian
HL-60(TB) leukemia = test system: HL-60(TB) leukemia
SF-268 CNS = test system: SF-268 CNS
M14 melanoma = test system: M14 melanoma

| SMILES | GI50 (DU-145 prostate) | TGI (DU-145 prostate) | GI50 (IGROV1 ovarian) | TGI (IGROV1 ovarian) | GI50 (EKVX NSCLC) | TGI (EKVX NSCLC) | GI50 (SK-MEL-5 melanoma) | TGI (SK-MEL-5 melanoma) | GI50 (SW-620 colon) | TGI (SW-620 colon) | GI50 (RPMI-8226 leukemia) | TGI (RPMI-8226 leukemia) | GI50 (OVCAR-4 ovarian) | TGI (OVCAR-4 ovarian) | GI50 (HL-60(TB) leukemia) | TGI (HL-60(TB) leukemia) | GI50 (SF-268 CNS) | TGI (SF-268 CNS) | GI50 (M14 melanoma) | TGI (M14 melanoma) |
| --- | --- | --- | --- | --- | --- | --- | --- | --- | --- | --- | --- | --- | --- | --- | --- | --- | --- | --- | --- | --- |
| COc1ccc(N=Cc2c(O)ccc3c2oc2cc(Cl)c(O)c(Cl)c23)cc1 | 18.9 µM | 45.9 µM | 14.7 µM | 43.3 µM | 10.7 µM | 38 µM | 10.5 µM | 27.7 µM | 11.8 µM | 25.9 µM | 4.83 µM | 30.2 µM | 16.3 µM | > 100 µM | 13.2 µM | 42.7 µM | 6.68 µM | 29.6 µM | 20.9 µM | 61.2 µM |
| COc1ccc(/C=C(/C(=O)N2CCN(c3ccccc3)CC2)c2cc(OC)c(OC)c(OC)c2)cc1N | 0.531 µM | > 100 µM | 0.697 µM | > 100 µM | 0.561 µM | > 100 µM | 0.386 µM | 10.9 µM | 0.401 µM | > 100 µM | 0.327 µM | 12 µM | 3.05 µM | > 100 µM | 0.241 µM | 0.596 µM | 0.711 µM | > 100 µM | 0.254 µM | 3.58 µM |
| COC1C(CO)OC(n2c3ccccc3c3c4c(c5c6ccccc6[nH]c5c32)C(=O)NC4=O)C(O)C1O (configuration not stated) | 0.0439 µM | 0.572 µM | 0.0844 µM | 3.49 µM | 0.326 µM | 2.34 µM | 0.0133 µM | 0.0608 µM | < 0.01 µM | 0.616 µM | 2.22 µM | 25.2 µM | 0.342 µM | 17.7 µM | 0.0114 µM | 0.034 µM | 0.0189 µM | 0.586 µM | 0.0441 µM | 0.347 µM |
| COC(=O)[C@@H](C)C[C@H](Cc1cn(C)c2ccccc12)NC(=O)c1csc([C@@H](C[C@H](C(C)C)N(C)C(=O)[C@@H](NC(=O)[C@H]2CCCCN2C)C(C)C)OC(C)=O)n1 | 0.00811 µM | – | 0.0289 µM | > 16.7 µM | 0.044 µM | > 16.7 µM | 0.00595 µM | 0.252 µM | 0.0083 µM | > 16.7 µM | 0.00776 µM | > 16.7 µM | 0.575 µM | > 16.7 µM | 0.00469 µM | 0.0194 µM | 0.0272 µM | > 16.7 µM | 0.0121 µM | 0.645 µM |
| CCOC(=O)c1ccccc1OC(=O)NNc1ccccc1 | > 48.5 µM | > 100 µM | 33.9 µM | > 100 µM | 6.07 µM | > 100 µM | 1.43 µM | > 33.2 µM | 12.4 µM | > 100 µM | 1.11 µM | > 100 µM | 15.2 µM | > 100 µM | 0.365 µM | – | 12.1 µM | > 100 µM | – | > 100 µM |
| CCN(CC)CCNc1ccc(C)c2sc3cc(Cl)ccc3c(=O)c12 | 1.78 µM | 3.17 µM | 1.83 µM | 4.05 µM | 1.47 µM | 3.1 µM | 1.68 µM | 3.07 µM | 1.86 µM | 3.6 µM | 1.79 µM | 3.86 µM | 1.95 µM | 5.13 µM | 1.81 µM | 3.71 µM | 1.68 µM | 3.37 µM | 1.8 µM | 3.4 µM |
| CC[C@H](NC(=O)[C@H]1CCCCN1C)C(=O)N(C)[C@H](C[C@@H](OC(C)=O)c1nc(C(=O)N[C@@H](Cc2ccccc2)C[C@H](C)C(=O)O)cs1)C(C)C | 0.00425 µM | > 4.64 µM | 0.0145 µM | > 14.3 µM | 0.01 µM | > 14.3 µM | < 0.00143 µM | 0.101 µM | 0.00398 µM | > 14.3 µM | 0.00531 µM | > 14.3 µM | 0.0326 µM | > 14.3 µM | 0.00433 µM | 0.019 µM | < 0.03 µM | > 14.3 µM | 0.00244 µM | 0.00969 µM |
| N#Cc1c(NC(=O)NCc2ccccc2)sc2c1CCCC2 | 0.801 µM | > 33.5 µM | 0.749 µM | > 100 µM | 2 µM | > 100 µM | 0.439 µM | 6.93 µM | 0.388 µM | > 100 µM | 0.538 µM | > 100 µM | 1.78 µM | > 100 µM | 0.3 µM | 3.13 µM | 1.82 µM | > 100 µM | 0.421 µM | > 100 µM |
| O=C1C(Cl)=C(Sc2nnc3c4ccccc4c4ccccc4c3n2)C(=O)c2ccccc21 | – | 22 µM | – | 21.2 µM | – | 37.7 µM | – | 22.4 µM | – | > 65.1 µM | – | 39.1 µM | – | 29.2 µM | – | 7.59 µM | – | 90.6 µM | – | 35 µM |
| COc1cccc(CCC2CCCN(c3cc(C)nc(N)n3)C2)c1 (configuration not stated) | 0.326 µM | 11.2 µM | 0.666 µM | 12.8 µM | 0.558 µM | 27.7 µM | 0.333 µM | 1.32 µM | 0.363 µM | 13.7 µM | 0.348 µM | 3.13 µM | 0.692 µM | 19.3 µM | 0.251 µM | 0.686 µM | 0.643 µM | 12.5 µM | 0.302 µM | 2.6 µM |
| O=C(c1ccco1)c1nc2cc(C(F)(F)F)ccc2nc1C(F)(F)F | > 100 µM | > 100 µM | > 100 µM | > 100 µM | > 100 µM | > 100 µM | > 100 µM | > 100 µM | > 100 µM | > 100 µM | 49.8 µM | > 100 µM | 56.4 µM | > 100 µM | 22.2 µM | 69.2 µM | > 100 µM | > 100 µM | > 100 µM | > 100 µM |
| O=C1CC[C@H](N2C(=O)c3cccc4c(Cc5ccc(CN6CCOCC6)cc5)ccc2c34)C(=O)N1 | > 100 µM | > 100 µM | > 100 µM | > 100 µM | 17.9 µM | > 100 µM | 7.32 µM | 26.4 µM | > 100 µM | > 100 µM | 9.18 µM | > 100 µM | 21.9 µM | > 100 µM | 24.1 µM | > 100 µM | > 100 µM | > 100 µM | 62 µM | > 100 µM |
